Values quoted from earlier work, collected in US10059688B2, “Protein tyrosine kinase modulators and methods of use” (BETTA PHARMACEUTICALS CO., LTD., priority 2013, dated 2018).

Experiments:
lung cancer patients = conditions: all lung cancer patients, not selected for EGFR mutation; cited from earlier work
[1] = test system: patients with EGFR mutations; conditions: six prospective trials; cited from earlier work

C#Cc1cccc(Nc2ncnc3cc(OCCOC)c(OCCOC)cc23)c1 [erlotinib]
likelihood of tumor shrinkage (response rate) (lung cancer patients): 8-10% | median time to tumor progression (lung cancer patients): approximately 2 months | radiographic response rates [1]: 60-82%
